Measurements taken from patent publication US20250171437A1 (Agios Pharmaceuticals,Inc., priority 2022, published 2025).

Biological target: T1, human PAH with the R408W mutation (A375 R408W cells) (Homo sapiens, UniProt P00439, R408W)
T1 construct: expressed in transfected cells
T1 sequence (P00439 1-452 R408W): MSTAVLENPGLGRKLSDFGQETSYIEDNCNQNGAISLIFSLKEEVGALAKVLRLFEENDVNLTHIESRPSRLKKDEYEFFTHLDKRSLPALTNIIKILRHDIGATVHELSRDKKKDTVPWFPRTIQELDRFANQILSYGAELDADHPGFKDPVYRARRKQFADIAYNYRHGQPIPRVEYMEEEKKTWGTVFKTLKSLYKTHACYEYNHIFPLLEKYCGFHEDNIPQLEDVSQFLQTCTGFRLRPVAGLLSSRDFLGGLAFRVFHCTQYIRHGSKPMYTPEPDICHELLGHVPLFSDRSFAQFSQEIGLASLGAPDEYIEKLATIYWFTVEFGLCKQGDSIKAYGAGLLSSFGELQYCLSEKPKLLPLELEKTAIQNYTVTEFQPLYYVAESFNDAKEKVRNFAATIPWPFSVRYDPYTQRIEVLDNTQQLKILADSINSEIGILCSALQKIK
Experiment: Cell Based Phenylalanine Flux Assay
Conditions: 24 hrs with compound, then 20 μM sepiapterin and 800 μM 13C9,15N-Phenylalanine for 4 hours, 13C-Tyrosine by LC-MS, average where tested multiple times
Procedure, shortened: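 LC-MS quantitation of 13C-tyrosine in media gave AC50 values. Stable A375 R408W PAH cells were preincubated 24 h with compound, then fed 800 μM labelled Phe plus 20 μM sepiapterin for 4 h. Dose curves were 10-point, tested in duplicate, averaged over repeat runs.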

[1] = A375 cells expressing R408W PAH

Compound | AC50 (A375 R408W cells) [nM] | AC50 [1] [nM]
[2H]C([2H])([2H])OCc1nc(C(F)F)c(C(=O)N2CCc3[nH]cnc3[C@@H]2c2nc3cc(F)ccc3o2)o1 [Example 156, (R)-(4-(difluoromethyl)-2-((methoxy-d3)methyl)oxazol-5-yl)(4-(5-fluorobenzo[d]oxazol-2-yl)-1,4,6,7-tetrahydro-5H-imidazo[4,5-c]pyridin-5-yl)methanone] | 1000 to 5000 | 
O=C(c1ocnc1C(F)F)N1CCc2[nH]cnc2[C@H]1c1nc2cccc(Br)c2o1 [Example 461, (S)-(4-(7-bromobenzo[d]oxazol-2-yl)-6,7-dihydro-1H-imidazo[4,5-c]pyridin-5(4H)-yl)(4-(difluoromethyl)oxazol-5-yl)methanone] | ≤ 500 | 
Cc1ccc2oc([C@H]3c4nc[nH]c4CCN3C(=O)c3nnc(-c4cc[nH]n4)o3)nc2c1 [Example 356, (R)-(5-(1H-pyrazol-3-yl)-1,3,4-oxadiazol-2-yl)(4-(5-methylbenzo[d]oxazol-2-yl)-6,7-dihydro-1H-imidazo[4,5-c]pyridin-5(4H)-yl)methanone] | 1000 to 5000 | 
Cc1ncoc1C(=O)N1CCc2[nH]cnc2[C@@H]1c1nc2ccccc2o1 [Example 794, (R)-(4-(benzo[d]oxazol-2-yl)-6,7-dihydro-1H-imidazo[4,5-c]pyridin-5(4H)-yl)(4-methyloxazol-5-yl)methanone] | 1000 to 5000 | 
Cc1ccc2nc(C3c4nc[nH]c4CCN3C(=O)c3cnn4cc(CCN(C)C)ccc34)oc2c1 (centres unmarked) |  | 1000 to 5000
Cc1ccc2oc([C@H]3c4nc[nH]c4CCN3C(=O)c3ocnc3C(F)(F)F)nc2c1 [Example 64, (R)-(4-(5-methylbenzo[d]oxazol-2-yl)-6,7-dihydro-1H-imidazo[4,5-c]pyridin-5(4H)-yl)(4-(trifluoromethyl)oxazol-5-yl)methanone] | ≤ 500 | 
COc1ccc2c(C(=O)N3CCc4[nH]cnc4[C@@H]3c3nc4cccc(F)c4o3)cnn2c1 [Example 326, (R)-(4-(7-fluorobenzo[d]oxazol-2-yl)-6,7-dihydro-1H-imidazo[4,5-c]pyridin-5(4H)-yl)(6-methoxypyrazolo[1,5-a]pyridin-3-yl)methanone] | 1000 to 5000 | 
O=C(c1oc(-c2ccc(C(F)(F)F)cn2)nc1C(F)F)N1CCc2[nH]cnc2[C@@H]1c1nc2cc(F)ccc2o1 [Example 443, (R)-(4-(difluoromethyl)-2-(5-(trifluoromethyl)pyridin-2-yl)oxazol-5-yl)(4-(5-fluorobenzo[d]oxazol-2-yl)-6,7-dihydro-1H-imidazo[4,5-c]pyridin-5(4H)-yl)methanone] | 500 to 1000 | 
COc1cccc2oc([C@@H]3c4nc[nH]c4CCN3C(=O)c3nc(C)nn3C)nc12 [Example 827, (S)-(1,3-dimethyl-1H-1,2,4-triazol-5-yl)(4-(4-methoxybenzo[d]oxazol-2-yl)-6,7-dihydro-1H-imidazo[4,5-c]pyridin-5(4H)-yl)methanone] | 1000 to 5000 | 
O=C(c1nnc(-c2c[nH]nc2C(F)(F)F)o1)N1CCc2[nH]cnc2C1c1nc2cc(F)ccc2o1 (centres unmarked) |  | 1000 to 5000
Cc1ccc2oc(C3c4nc[nH]c4CCN3C(=O)c3nc(C)nn3C)nc2c1 (centres unmarked) |  | 1000 to 5000
CC(C)(O)c1nc(C(F)(F)F)c(C(=O)N2CCc3[nH]cnc3[C@H]2c2nc3c(F)cccc3o2)o1 [Example 257, (S)-(4-(4-fluorobenzo[d]oxazol-2-yl)-6,7-dihydro-1H-imidazo[4,5-c]pyridin-5(4H)-yl)(2-(2-hydroxypropan-2-yl)-4-(trifluoromethyl)oxazol-5-yl)methanone] | ≤ 500 | 
CC(C)(O)Cn1cc(C(=O)N2CCc3[nH]cnc3C2c2nc3cc(F)ccc3o2)cn1 (centres unmarked) |  | ≥ 5000
O=C(c1ccnn1C(F)F)N1CCc2[nH]cnc2[C@@H]1c1nc2cc(F)ccc2o1 [Example 94, (R)-(1-(difluoromethyl)-1H-pyrazol-5-yl)(4-(5-fluorobenzo[d]oxazol-2-yl)-6,7-dihydro-1H-imidazo[4,5-c]pyridin-5(4H)-yl)methanone] | 1000 to 5000 | 
CN(C)CCCc1ccc2c(C(=O)N3CCc4[nH]cnc4C3c3nc4cc(F)ccc4o3)cnn2c1 (centres unmarked) |  | ≥ 5000
COc1cc(F)cc2nc([C@@H]3c4nc[nH]c4CCN3C(=O)c3ocnc3C(F)F)oc12 [Example 718, (S)-(4-(difluoromethyl)oxazol-5-yl)(4-(5-fluoro-7-methoxybenzo[d]oxazol-2-yl)-6,7-dihydro-1H-imidazo[4,5-c]pyridin-5(4H)-yl)methanone] | ≤ 500 | 

Compound | AC50 (A375 R408W cells) [nM] | AC50 [1] [nM]
COc1cc(F)c2oc([C@@H]3c4nc[nH]c4CCN3C(=O)c3ocnc3C(F)F)nc2c1 [Example 663, (S)-(4-(difluoromethyl)oxazol-5-yl)(4-(7-fluoro-5-methoxybenzo[d]oxazol-2-yl)-6,7-dihydro-1H-imidazo[4,5-c]pyridin-5(4H)-yl)methanone] | ≤ 500 | 
Cc1nc(-c2ccccn2)oc1C(=O)N1CCc2[nH]cnc2[C@@H]1c1nc2cccc(F)c2o1 [Example 593, (R)-(4-(7-fluorobenzo[d]oxazol-2-yl)-6,7-dihydro-1H-imidazo[4,5-c]pyridin-5(4H)-yl)(4-methyl-2-(pyridin-2-yl)oxazol-5-yl)methanone] | 1000 to 5000 | 
Cn1nc(C(F)(F)F)nc1C(=O)N1CCc2[nH]cnc2[C@@H]1c1nc2cccc(F)c2o1 [Example 280, (R)-(4-(7-fluorobenzo[d]oxazol-2-yl)-6,7-dihydro-1H-imidazo[4,5-c]pyridin-5(4H)-yl)(1-methyl-3-(trifluoromethyl)-1H-1,2,4-triazol-5-yl)methanone] | 1000 to 5000 | 
Cc1ccc2nc([C@H]3c4nc[nH]c4CCN3C(=O)c3oc(C(C)(C)O)nc3C)oc2c1 [Example 320, (R)-(2-(2-hydroxypropan-2-yl)-4-methyloxazol-5-yl)(4-(6-methylbenzo[d]oxazol-2-yl)-6,7-dihydro-1H-imidazo[4,5-c]pyridin-5(4H)-yl)methanone] | ≥ 5000 | 
Cc1c(F)ccc2oc([C@H]3c4nc[nH]c4CCN3C(=O)c3oc(C(C)(C)O)nc3C(F)F)nc12 [Example 720, (R)-(4-(difluoromethyl)-2-(2-hydroxypropan-2-yl)oxazol-5-yl)(4-(5-fluoro-4-methylbenzo[d]oxazol-2-yl)-6,7-dihydro-1H-imidazo[4,5-c]pyridin-5(4H)-yl)methanone] | 500 to 1000 | 
Cc1ccc2oc([C@@H]3c4nc[nH]c4CCN3C(=O)c3nnc(-c4ccccn4)o3)nc2c1 [Example 97, (S)-(4-(5-methylbenzo[d]oxazol-2-yl)-6,7-dihydro-1H-imidazo[4,5-c]pyridin-5(4H)-yl)(5-(pyridin-2-yl)-1,3,4-oxadiazol-2-yl)methanone] | ≤ 500 | 
COCc1ccc2c(C(=O)N3CCc4[nH]cnc4[C@H]3c3nc4cc(C)ccc4o3)cnn2c1 [Example 877, (S)-(6-(methoxymethyl)pyrazolo[1,5-a]pyridin-3-yl)(4-(5-methylbenzo[d]oxazol-2-yl)-6,7-dihydro-1H-imidazo[4,5-c]pyridin-5(4H)-yl)methanone] | 1000 to 5000 | 
Cc1cccc2nc(C3c4nc[nH]c4CCN3C(=O)c3cnn4cc(N5CCC(O)CC5)ccc34)oc12 (centres unmarked) |  | 1000 to 5000
CC(C)(O)c1nc(C(=O)N2CCc3[nH]cnc3C2c2nc3cc(F)ccc3o2)no1 (centres unmarked) |  | ≥ 5000
COc1cccc2oc([C@@H]3c4nc[nH]c4CCN3C(=O)c3nnc(-c4ccn(C)n4)o3)nc12 [Example 639, (S)-(4-(4-methoxybenzo[d]oxazol-2-yl)-6,7-dihydro-1H-imidazo[4,5-c]pyridin-5(4H)-yl)(5-(1-methyl-1H-pyrazol-3-yl)-1,3,4-oxadiazol-2-yl)methanone] | ≤ 500 | 
Cc1cccc2oc([C@@H]3c4nc[nH]c4CCN3C(=O)c3ocnc3C(F)F)nc12 [Example 382, (S)-(4-(difluoromethyl)oxazol-5-yl)(4-(4-methylbenzo[d]oxazol-2-yl)-6,7-dihydro-1H-imidazo[4,5-c]pyridin-5(4H)-yl)methanone] | ≤ 500 | 
O=C(c1ocnc1C(F)(F)F)N1Cc2[nH]cnc2[C@H]1c1nc2ccccc2o1 [Example 944, (S)-(4-(benzo[d]oxazol-2-yl)-4,6-dihydropyrrolo[3,4-d]imidazol-5(1H)-yl)(4-(trifluoromethyl)oxazol-5-yl)methanone] | 1000 to 5000 | 
O=C(c1cnn2cc(-c3ccccn3)ccc12)N1CCc2[nH]cnc2[C@@H]1c1nc2c(F)cccc2o1 [Example 544, (R)-(4-(4-fluorobenzo[d]oxazol-2-yl)-6,7-dihydro-1H-imidazo[4,5-c]pyridin-5(4H)-yl)(6-(pyridin-2-yl)pyrazolo[1,5-a]pyridin-3-yl)methanone] | 1000 to 5000 | 
NCc1ccc2c(C(=O)N3CCc4[nH]cnc4C3c3nc4cc(F)ccc4o3)cnn2c1 (centres unmarked) |  | 1000 to 5000
CC(C)(O)c1nc(Br)c(C(=O)N2CCc3[nH]cnc3[C@H]2c2nc3cccc(F)c3o2)o1 [Example 263, (S)-(4-bromo-2-(2-hydroxypropan-2-yl)oxazol-5-yl)(4-(7-fluorobenzo[d]oxazol-2-yl)-6,7-dihydro-1H-imidazo[4,5-c]pyridin-5(4H)-yl)methanone] | ≤ 500 | 
Cn1cc(-c2ccc3c(C(=O)N4CCc5[nH]cnc5[C@@H]4c4nc5cccc(F)c5o4)cnn3c2)cn1 [Example 384, (R)-(4-(7-fluorobenzo[d]oxazol-2-yl)-6,7-dihydro-1H-imidazo[4,5-c]pyridin-5(4H)-yl)(6-(1-methyl-1H-pyrazol-4-yl)pyrazolo[1,5-a]pyridin-3-yl)methanone] | 1000 to 5000 | 
